Key:
SCC-25 cells = assay: [3H]-thymidine proliferation assay with SCC-25 cells; format: cell-based; conditions: together with calcitriol; 1, 10, 50 nM compound; three days
Procedure: (§1) SCC-25 cells were treated with specified concentrations of calcitriol and compound Va for three days. Cells were then incubated with [^3H]-thymidine for 6 h at 37° C. in a humidified atmosphere containing 5% CO2. Plates were harvested and radioactivity measured. Dose response curves in the absence of Va, 1 nM Va, 10 nM Va and 50 nM Va are shown.
[^3H]-thymidine Proliferation Assay with SCC-25 Cells
• 1. Preparation of cell suspension • When SCC-25 cells are 70-80% confluent, aspirate media. Wash the cells with 1×PBS. Trypsinize with trypsin-EDTA from the plate, collect cells from the tissue culture flask, centrifuged (500×g, 5 min) and resuspended in media. • 2. Cell plating. • Count the cells and adjust the cell density to 10,000/ml. Add 200 μl per well in a 96 well plate. Incubate plate for 24 h at 37° C. in a humidified atmosphere plus 5% CO2. Aspirate used media and replace with 150 μl per well with media. • 3. Compound addition. • Add 25 μl of 1α,25(OH)2D3 (final concentration 10^−6 M, 10^−7 M, 10^−8 M, 10^−9 M, 10^−10 M, 10^−11 M) into each designated well. Add 25 μL of Substrate (final concentration 10^−7 M, 5×10^−8 M, 10^−8 M or 10^−9 M) into each designated well. Incubate plates for 3 days at 37° C. in a humidified atmosphere plus 5% CO2. • 4. ^3H-Thymidine incorporation. • Add ^3H-thymidine at 0.02 μCi per well and incubate at 37° C. in a humidified atmosphere plus 5% CO2 for 6 h. • 5. Plate Harvesting. • Aspirate all media and wash cells with 1×PBS. Trypsinize cells for 30 min at 37° C. in a humidified atmosphere plus 5% CO2. Harvest cells onto a 96 well filter plate (Millipore) using a Tomtec Cell Harvestor, according to manufacturers instructions. • 6. Scintillation Counting. • Add 25 μl of scintillation fluid per well. Count the plate using a scintillation counter. Results: See FIGS. 10-13.

MCF-7 cells = assay: [3H]-thymidine proliferation assay with MCF-7 cells; format: cell-based; conditions: together with calcitriol; 1, 10, 50 nM compound; three days
Procedure: as §1, with “MCF-7” for “SCC-25”
[^3H]-thymidine Proliferation Assay with MCF-7 Cells
• 1. Preparation of cell suspension • When MCF-7 cells are 70-80% confluent, aspirate growth media. Wash the cells with 1×PBS. Trypsinize with trypsin-EDTA from the plate, collect cells from the tissue culture flask, centrifuged (500×g, 5 min) and resuspended in growth media. • 2. Cell plating. • Count the cells and adjust the cell density to 25, 000/ml. Add 200 μl per well in a 96 well plate. Incubate plate for 24 h at 37° C. in a humidified atmosphere plus 5% CO2. Aspirate used media and replace with […] per well with proliferation media. • 3. Substrate addition. • Add 25 μl of 1α,25(OH)2D3 (final concentration 10^−6 M, 10^−7 M, 10^−8 M, 10^−9 M, 10^−10 M, 10^−11 M) into each designated well. Add 25 μl of Substrate (final concentration 10^−7 M, 5×10^−8 M, 10^−8 M or 10^−9 M) into each designated well. Incubate plates for 3 days at 37° C. in a humidified atmosphere plus 5% CO2. • 4. ^3H-Thymidine incorporation. • Add ^3H-thymidine at 0.02 μCi per well and incubate at 37° C. in a humidified atmosphere plus 5% CO2 for 6 h. • 5. Plate Harvesting. • Aspirate all media and wash cells with 1×PBS. Trypsinize cells for 30 min at 37° C. in a humidified atmosphere plus 5% CO2. Harvest cells onto a 96 well filter plate (Millipore) using a Tomtec Cell Harvestor, according to manufacturers instructions. • 6. Scintillation Counting. • Add 25 μt of scintillation fluid per well. Count the plate using a scintillation counter. Results: See FIGS. 5-9.

[1] = system: normal human epidermal keratinocytes (NHEK); assay: Human epidermal keratinocyte proliferation (HEK) assay, [3H]-thymidine; format: cell-based; conditions: together with calcitriol; 1, 10, 50 nM compound; three days
Procedure: as §1, with “NHEK” for “SCC-25 cells”, “18” for “6”
Human Epidermal Keratinocyte Proliferation (HEK) Assay
• 1. HEK cell media • Supplement KGM media with additional reagents provided in the bullet kit as per supplier's instructions. • Add calcium chloride to final concentration of 0.3 mM. • 2. Calcitriol dilutions
(iii) Procedure: • 2. Cell culture • Thaw one vial of HEK cells containing at least 500 K, and divide into 5 25 cm^2 flasks with 5 ml HEK cell media. 24 h later, remove media and replenish with 5 ml fresh media. Change media again 48 h later. • 3. Preparation of cell suspension • On the day of the assay, wash the monolayer of HEK cells once with 1×PBS buffer (provided in reagent pack) and then trypsinize for 5 min at 37° C. Add trypsin neutralizing solution (provided in reagent pack). Collect cells into tube, centrifuge cells (500×g, 5 min) and resuspend in HEK cell media. Count cells and adjust density to 150,000 cells/ml. Dilute cells further 1:30 with HEK cell media. • 2. Cell plating • Add 150 μl of cell suspension to appropriately labelled wells of a 96-well plate. Incubate plate for 48 h at 37° C. in a humidified atmosphere containing 5% CO2 for adherence of cells to wells. • 3. Compound addition • Add 25 μl of calcitriol (10^−6 to 10^−11 M, final) and add 25 μl of substrate (10^−7 to 10^−10 M, final) and incubate for 32 hours at 37° C. in a humidified atmosphere containing 5% CO2. • 4. Cell harvesting and counting • Add 0.2 μCi/well of [^3H]-thymidine in 20 μl of HEK cell media to each well. Incubate plates for 18 h at 37° C. in a humidified atmosphere containing 5% CO2. Aspirate media and wash with 1×PBS. Trypsinize cells for 30 min at 37° C. in a humidified atmosphere containing 5% CO2. Harvest cells onto filter plates using Tomtec cell harvester as per manufacturer's instructions. Add 25 μl scintillation fluid per well. Measure radioactivity using a scintillation counter. All values were normalized for background. Results; See FIGS. 1-4

[2] = Antiproliferative activity of the compound of Formula VI (test not specified); format: cell-based; conditions: present invention
Description: The preparation of the compound of Formula VI was previously reported (Wang, Q. PhD Thesis, 2000, Johns Hopkins University). The ability of the compound of Formula VI to selectively modulate CYP24 activity has not been reported. […] Accordingly, the present invention is the first to find that the compound of Formula VI is useful in the methods of the invention.

CYP24 = target: T1, CYP24 (Homo sapiens, UniProt Q07973); assay: In vitro test for selective inhibition of CYP24 (standard protocol, ketoconazole control); format: biochemical; conditions: in comparison to CYP27A1 and CYP27B1
T1 sequence (Q07973 36-514): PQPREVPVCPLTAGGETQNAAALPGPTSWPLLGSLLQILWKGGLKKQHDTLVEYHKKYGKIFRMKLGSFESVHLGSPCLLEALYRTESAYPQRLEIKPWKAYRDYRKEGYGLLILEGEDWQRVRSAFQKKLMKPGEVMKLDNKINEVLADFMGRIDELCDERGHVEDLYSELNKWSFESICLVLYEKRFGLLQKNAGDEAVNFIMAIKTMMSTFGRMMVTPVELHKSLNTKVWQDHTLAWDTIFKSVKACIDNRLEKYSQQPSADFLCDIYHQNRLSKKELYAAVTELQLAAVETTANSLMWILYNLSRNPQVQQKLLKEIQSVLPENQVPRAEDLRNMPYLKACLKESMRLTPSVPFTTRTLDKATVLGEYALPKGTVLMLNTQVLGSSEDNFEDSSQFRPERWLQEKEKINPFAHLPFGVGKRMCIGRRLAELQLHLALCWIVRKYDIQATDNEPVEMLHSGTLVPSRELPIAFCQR
Procedure: Selectively inhibiting the cytochrome P450 enzymatic pathway, through which 1α,25-dihydroxyvitamin D3 is catabolized (mainly via C-24 hydroxylation), is one important way to prolong the lifetime of this hormone, or analogs thereof. Therefore, the compounds of Formula I were tested in vitro, using a standard protocol, for their ability to inhibit specifically CYP24, an enzyme responsible for 24-hydroxylation of 1α,25-dihydroxyvitamin D3. Antimycotic ketoconazole, a drug used clinically for chemotherapy of human prostate cancer (Trachtenberg, J. et al. J. Urol. 1984, J32, 61-63), was used as a control standard for inhibition of CYP24.

Compound | inhibition of SCC-25 cells ([3H]-thymidine incorporation) (SCC-25 cells) | inhibition of MCF-7 cells ([3H]-thymidine incorporation) (MCF-7 cells) | inhibition of NHEK ([3H]-thymidine incorporation) [1] | antiproliferative activity [2] | selective inhibition of CYP24 activity (CYP24)
C=C1/C(=C\C=C2/CCC[C@]3(C)C([C@H](C)C/C=C(/F)S(=O)(=O)C(C)(C)C)=CC[C@@H]23)C[C@@H](O)C[C@@H]1O [Ib(v)] | act to inhibit SCC-25 cells | act to inhibit MCF-7 cells | act to inhibit normal human epidermal keratinocytes | – | –
C[C@H](C/C=C(\F)S(=O)(=O)C(C)(C)C)C1=CC[C@H]2/C(=C/C=C3C[C@@H](O)C[C@H](O)C3)CCC[C@]12C [Ia(xi)] | – | act to inhibit MCF-7 cells | – | – | –
C=C1/C(=C\C=C2/CCC[C@]3(C)C([C@H](C)CCC(C)(C)S(=O)(=O)C(C)(C)C)=CCC23)C[C@@H](O)C[C@@H]1O (some centres unmarked) [IVa, 16-ene-24-dimethyl-25-SO2-TB1] | act to inhibit SCC-25 cells | act to inhibit MCF-7 cells | act to inhibit normal human epidermal keratinocytes | – | –
C=C1/C(=C\C=C2/CCCC3(C)C(C(C)CCC4(S(=O)(=O)C(C)(C)C)CC4)=CCC23)CC(O)CC1O (centres unmarked) [Formula VI] | – | – | – | does have antiproliferative activity | shows selective inhibition of CYP24 activity
C=C1/C(=C\C=C2/CCC[C@]3(C)[C@@H]([C@H](C)CCCS(=O)(=O)c4ccc(F)cc4)CC[C@@H]23)C[C@@H](O)C[C@@H]1O [Va] | act to inhibit SCC-25 cells | act to inhibit MCF-7 cells | act to inhibit normal human epidermal keratinocytes | – | –
C=C1/C(=C\C=C2/CCC[C@@]3(C)C2CC[C@@H]3[C@H](C)CCC2(S(=O)(=O)C(C)(C)C)CC2)C[C@@H](O)C[C@@H]1O (some centres unmarked) [IIa] | act to inhibit SCC-25 cells | – | act to inhibit normal human epidermal keratinocytes | – | –

Reference: patent US8106035B2, “25-SO2-substituted analogs of 1μ,25-dihydroxyvitamin D3” (Cytochroma Inc., priority 2002, dated 2012)
